Values quoted from earlier work as cited in patent US11576871B2 (The Regents of the University of California, priority 2016, dated 2023).

Legend:
[1] = children with cystinosis
[2] = system: intracellular cystine in circulating white blood cells

For COc1ccc2c(c1)c(CC(=O)O)c(C)n2C(=O)c1ccc(Cl)cc1 [indomethacin], the “reduction of urine volume (and liquid consumption)” value [1] is given as “about 30%”.

For NCCS [cysteamine, Cysteamine], the “time to observed decrease in leukocyte cystine” value ([2]; delivery of cysteamine to the small intestine (WO 2007/089670)) is given as “within an hour” and the “depletion of intracellular cystine” value ([2]; taken regularly, measured in circulating white blood cells) is given as “up to 90%”.
